Tests used:
Test in all cases: relative viability (nuclei count vs DMSO), 5 days (fraction); higher = more cells survive
ABC-1 = tested on: ABC-1
Method in brief: (§1)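 After 5 days of treatment, lung cancer cells in 1536-well plates were fixed and stained in a single step (final 0.05% Triton X-100, 1% formaldehyde, 1 ug/ml Hoechst) and their nuclei counted on 4× images. Treatment had been applied by pin tool the day after seeding as one drug alone or as a fixed anchor-drug dose with five library-drug doses (not always all listed) in √10 steps. Relative viability is the nuclei count of treated wells divided by that of vehicle wells, and values are medians of duplicate plates.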

CAL-12T = tested on: CAL-12T
Method in brief: as §1

ChaGo-K-1 = tested on: ChaGo-K-1
Method in brief: as §1

EMC-BAC-2 = tested on: EMC-BAC-2
Method in brief: as §1

EPLC-272H = tested on: EPLC-272H
Method in brief: as §1

HCC-15 = tested on: HCC-15
Method in brief: as §1

HCC-78 = tested on: HCC-78
Method in brief: as §1

HOP-62 = tested on: HOP-62
Method in brief: as §1

LXF-289 = tested on: LXF-289
Method in brief: as §1

NCI-H1666 = tested on: NCI-H1666
Method in brief: as §1

NCI-H1755 = tested on: NCI-H1755
Method in brief: as §1

NCI-H1915 = tested on: NCI-H1915
Method in brief: as §1

NCI-H1975 = tested on: NCI-H1975
Method in brief: as §1

NCI-H2085 = tested on: NCI-H2085
Method in brief: as §1

NCI-H2126 = tested on: NCI-H2126
Method in brief: as §1

NCI-H3122 = tested on: NCI-H3122
Method in brief: as §1

NCI-H322M = tested on: NCI-H322M
Method in brief: as §1

NCI-H358 = tested on: NCI-H358
Method in brief: as §1

NCI-H441 = tested on: NCI-H441
Method in brief: as §1

COc1cc2nccc(Oc3ccc(NC(=O)Nc4cc(C)on4)c(Cl)c3)c2cc1OC [Tivozanib] + NC(=O)Nc1cc(-c2cccc(F)c2)sc1C(=O)N[C@H]1CCCNC1 [AZD7762] (partner 0.2 µM)
relative viability (ABC-1; first compound 0.005 µM): 1.05
relative viability (ABC-1; first compound 0.01581 µM): 0.865
relative viability (ABC-1; first compound 0.05 µM): 0.895
relative viability (ABC-1; first compound 0.1581 µM): 1.12
relative viability (ABC-1; first compound 0.5 µM): 0.785
relative viability (CAL-12T; first compound 0.005 µM): 0.483
relative viability (CAL-12T; first compound 0.01581 µM): 0.584
relative viability (CAL-12T; first compound 0.05 µM): 0.668
relative viability (CAL-12T; first compound 0.1581 µM): 0.722
relative viability (CAL-12T; first compound 0.5 µM): 0.71
relative viability (ChaGo-K-1; first compound 0.005 µM): 0.847
relative viability (ChaGo-K-1; first compound 0.01581 µM): 0.831
relative viability (ChaGo-K-1; first compound 0.05 µM): 0.901
relative viability (ChaGo-K-1; first compound 0.1581 µM): 0.909
relative viability (ChaGo-K-1; first compound 0.5 µM): 0.845
relative viability (EMC-BAC-2; first compound 0.005 µM): 1.06
relative viability (EMC-BAC-2; first compound 0.01581 µM): 1.15
relative viability (EMC-BAC-2; first compound 0.05 µM): 1.06
relative viability (EMC-BAC-2; first compound 0.1581 µM): 1.06
relative viability (EMC-BAC-2; first compound 0.5 µM): 1.04
relative viability (EPLC-272H; first compound 0.005 µM): 0.147
relative viability (EPLC-272H; first compound 0.01581 µM): 0.159
relative viability (EPLC-272H; first compound 0.05 µM): 0.186
relative viability (EPLC-272H; first compound 0.1581 µM): 0.203
relative viability (EPLC-272H; first compound 0.5 µM): 0.184
relative viability (HCC-15; first compound 0.005 µM): 1.18
relative viability (HCC-15; first compound 0.01581 µM): 1.28
relative viability (HCC-15; first compound 0.05 µM): 1.34
relative viability (HCC-15; first compound 0.1581 µM): 1.29
relative viability (HCC-15; first compound 0.5 µM): 1.33
relative viability (HCC-78; first compound 0.005 µM): 0.551
relative viability (HCC-78; first compound 0.01581 µM): 0.677
relative viability (HCC-78; first compound 0.05 µM): 0.674
relative viability (HCC-78; first compound 0.1581 µM): 0.497
relative viability (HCC-78; first compound 0.5 µM): 0.657
relative viability (HOP-62; first compound 0.005 µM): 0.559
relative viability (HOP-62; first compound 0.01581 µM): 0.646
relative viability (HOP-62; first compound 0.05 µM): 0.383
relative viability (HOP-62; first compound 0.1581 µM): 0.429
relative viability (HOP-62; first compound 0.5 µM): 0.467
relative viability (LXF-289; first compound 0.005 µM): 1.05
relative viability (LXF-289; first compound 0.01581 µM): 1.03
relative viability (LXF-289; first compound 0.05 µM): 1.09
relative viability (LXF-289; first compound 0.1581 µM): 1.21
relative viability (LXF-289; first compound 0.5 µM): 1.06
relative viability (NCI-H1666; first compound 0.005 µM): 0.784
relative viability (NCI-H1666; first compound 0.01581 µM): 0.761
relative viability (NCI-H1666; first compound 0.05 µM): 0.956
relative viability (NCI-H1666; first compound 0.1581 µM): 0.82
relative viability (NCI-H1666; first compound 0.5 µM): 0.845
relative viability (NCI-H1755; first compound 0.005 µM): 0.441
relative viability (NCI-H1755; first compound 0.01581 µM): 0.428
relative viability (NCI-H1755; first compound 0.05 µM): 0.444
relative viability (NCI-H1755; first compound 0.1581 µM): 0.457
relative viability (NCI-H1755; first compound 0.5 µM): 0.411
relative viability (NCI-H1915; first compound 0.005 µM): 0.728
relative viability (NCI-H1915; first compound 0.01581 µM): 0.687
relative viability (NCI-H1915; first compound 0.05 µM): 0.711
relative viability (NCI-H1915; first compound 0.1581 µM): 0.717
relative viability (NCI-H1915; first compound 0.5 µM): 0.618
relative viability (NCI-H1975; first compound 0.005 µM): 0.594
relative viability (NCI-H1975; first compound 0.01581 µM): 0.742
relative viability (NCI-H1975; first compound 0.05 µM): 0.746
relative viability (NCI-H1975; first compound 0.1581 µM): 0.836
relative viability (NCI-H1975; first compound 0.5 µM): 0.595
relative viability (NCI-H2085; first compound 0.005 µM): 0.881
relative viability (NCI-H2085; first compound 0.01581 µM): 0.862
relative viability (NCI-H2085; first compound 0.05 µM): 1.05
relative viability (NCI-H2085; first compound 0.1581 µM): 0.912
relative viability (NCI-H2085; first compound 0.5 µM): 0.887
relative viability (NCI-H2126; first compound 0.005 µM): 1.06
relative viability (NCI-H2126; first compound 0.01581 µM): 0.936
relative viability (NCI-H2126; first compound 0.05 µM): 1.02
relative viability (NCI-H2126; first compound 0.1581 µM): 0.732
relative viability (NCI-H2126; first compound 0.5 µM): 1.01
relative viability (NCI-H3122; first compound 0.005 µM): 0.97
relative viability (NCI-H3122; first compound 0.01581 µM): 0.876
relative viability (NCI-H3122; first compound 0.05 µM): 0.974
relative viability (NCI-H3122; first compound 0.1581 µM): 1.02
relative viability (NCI-H3122; first compound 0.5 µM): 1.02
relative viability (NCI-H322M; first compound 0.005 µM): 0.562
relative viability (NCI-H322M; first compound 0.01581 µM): 0.767
relative viability (NCI-H322M; first compound 0.05 µM): 0.628
relative viability (NCI-H322M; first compound 0.1581 µM): 0.443
relative viability (NCI-H322M; first compound 0.5 µM): 0.586
relative viability (NCI-H358; first compound 0.005 µM): 0.449
relative viability (NCI-H358; first compound 0.01581 µM): 0.621
relative viability (NCI-H358; first compound 0.05 µM): 0.552
relative viability (NCI-H358; first compound 0.1581 µM): 0.513
relative viability (NCI-H358; first compound 0.5 µM): 0.469
relative viability (NCI-H441; first compound 0.005 µM): 1.05
relative viability (NCI-H441; first compound 0.01581 µM): 0.935
relative viability (NCI-H441; first compound 0.05 µM): 1.28
relative viability (NCI-H441; first compound 0.1581 µM): 1.35
relative viability (NCI-H441; first compound 0.5 µM): 1.08

Reference: the supplement of paper PMC10307832
